Columns and labels:
[1] = excess molar enthalpy (molar enthalpy of mixing); xn = mol fraction of the nth substance listed; conditions: 298.15 K, 98 kPa, Liquid, Calvet calorimetry
[2] = xn = mol fraction of the nth substance listed; conditions: 98 kPa, Liquid; for speed of sound: Frequency=3 MHz, Single path-length method; for mass density: Vibrating tube method

Cn1ccnc1 [1-methylimidazole] + CCO
[1]
Conditions | excess molar enthalpy [kcal/mol]
x1 = 0.0523 | -0.0449
x1 = 0.1012 | -0.0853
x1 = 0.2013 | -0.15
x1 = 0.3057 | -0.194
x1 = 0.4037 | -0.23
x1 = 0.5087 | -0.239
x1 = 0.5987 | -0.199
x1 = 0.7146 | -0.152
x1 = 0.8003 | -0.105
x1 = 0.8861 | -0.0619
x1 = 0.9463 | -0.0344
x1 = 1 | 0

[2]
Conditions | mass density, 288.15 K [kg/m3] | mass density, 298.15 K [kg/m3] | mass density, 308.15 K [kg/m3] | mass density, 318.15 K [kg/m3] | mass density, 328.15 K [kg/m3] | speed of sound, 288.15 K [m/s] | speed of sound, 298.15 K [m/s] | speed of sound, 308.15 K [m/s] | speed of sound, 318.15 K [m/s] | speed of sound, 328.15 K [m/s]
x1 = 0.0511 | 812.59 | 803.97 | 795.24 | 786.37 | 777.3 | 1210.6 | 1176.2 | 1141.9 | 1108 | 1074.3
x1 = 0.1012 | 829.84 | 821.16 | 812.37 | 803.49 | 794.35 | 1240.8 | 1206.2 | 1171.7 | 1137.5 | 1103.7
x1 = 0.2006 | 861.64 | 852.87 | 844 | 835.02 | 825.9 | 1296.9 | 1261.9 | 1227 | 1192.5 | 1158.3
x1 = 0.3012 | 891.28 | 882.45 | 873.53 | 864.53 | 855.41 | 1350 | 1314.7 | 1279.5 | 1244.6 | 1210.1
x1 = 0.3955 | 916.81 | 907.94 | 899 | 889.99 | 880.88 | 1396.8 | 1361.2 | 1325.7 | 1290.5 | 1255.7
x1 = 0.5 | 942.71 | 933.82 | 924.87 | 915.86 | 906.77 | 1445.7 | 1409.8 | 1373.8 | 1338.3 | 1303
x1 = 0.5994 | 965.25 | 956.36 | 947.41 | 938.4 | 929.34 | 1489.5 | 1453 | 1416.7 | 1380.7 | 1345.1
x1 = 0.7066 | 987.5 | 978.61 | 969.67 | 960.68 | 951.65 | 1533 | 1496.1 | 1459.3 | 1423 | 1386.9
x1 = 0.8063 | 1006.58 | 997.7 | 988.78 | 979.82 | 970.81 | 1570.7 | 1533.5 | 1496.3 | 1459.6 | 1423.3
x1 = 0.902 | 1023.35 | 1014.49 | 1005.59 | 996.65 | 987.68 | 1603.2 | 1565.8 | 1528.4 | 1491.4 | 1454.8
x1 = 0.9505 | 1031.47 | 1022.63 | 1013.75 | 1004.83 | 995.88 | 1619 | 1581.5 | 1544 | 1507 | 1470.2
x1 = 1 | 1039.36 | 1030.52 | 1021.66 | 1012.76 | 1003.83 | 1634.1 | 1596.5 | 1559 | 1521.8 | 1485

Cn1ccnc1 [1-methylimidazole] + CCCO
[1]
Conditions | excess molar enthalpy [kcal/mol]
x1 = 0.05 | -0.032
x1 = 0.101 | -0.0624
x1 = 0.193 | -0.112
x1 = 0.2923 | -0.151
x1 = 0.3845 | -0.179
x1 = 0.4985 | -0.188
x1 = 0.5962 | -0.179
x1 = 0.7004 | -0.147
x1 = 0.8026 | -0.106
x1 = 0.8897 | -0.0564
x1 = 0.9463 | -0.0311
x1 = 1 | 0

[2]
Conditions | mass density, 288.15 K [kg/m3] | mass density, 298.15 K [kg/m3] | mass density, 308.15 K [kg/m3] | mass density, 318.15 K [kg/m3] | mass density, 328.15 K [kg/m3] | speed of sound, 288.15 K [m/s] | speed of sound, 298.15 K [m/s] | speed of sound, 308.15 K [m/s] | speed of sound, 318.15 K [m/s] | speed of sound, 328.15 K [m/s]
x1 = 0.0507 | 820.94 | 812.86 | 804.67 | 796.32 | 787.79 | 1261.9 | 1227.2 | 1192.8 | 1158.7 | 1124.9
x1 = 0.1042 | 834.73 | 826.55 | 818.26 | 809.85 | 801.26 | 1284.5 | 1249.6 | 1214.9 | 1180.6 | 1146.6
x1 = 0.2018 | 859.55 | 851.23 | 842.82 | 834.3 | 825.64 | 1324.6 | 1289.5 | 1254.5 | 1219.9 | 1185.7
x1 = 0.301 | 884.11 | 875.67 | 867.16 | 858.56 | 849.84 | 1364.2 | 1329 | 1293.8 | 1259 | 1224.5
x1 = 0.4047 | 909.21 | 900.68 | 892.08 | 883.41 | 874.64 | 1405.6 | 1370.1 | 1334.7 | 1299.7 | 1265
x1 = 0.5076 | 933.32 | 924.7 | 916.03 | 907.3 | 898.5 | 1446.2 | 1410.4 | 1374.6 | 1339.2 | 1304.2
x1 = 0.6006 | 954.58 | 945.89 | 937.17 | 928.39 | 919.55 | 1483.1 | 1447 | 1410.8 | 1375.1 | 1339.7
x1 = 0.7029 | 977.37 | 968.62 | 959.84 | 951.01 | 942.13 | 1523.8 | 1487.2 | 1450.6 | 1414.4 | 1378.5
x1 = 0.8027 | 999.22 | 990.42 | 981.59 | 972.72 | 963.81 | 1564.5 | 1527.3 | 1490.2 | 1453.5 | 1417.2
x1 = 0.903 | 1020.12 | 1011.3 | 1002.44 | 993.55 | 984.62 | 1602 | 1564.6 | 1527.1 | 1490.1 | 1453.4
x1 = 0.9532 | 1030.34 | 1021.51 | 1012.64 | 1003.74 | 994.81 | 1620.1 | 1582.6 | 1545.1 | 1507.9 | 1471.1
x1 = 1 | 1039.36 | 1030.52 | 1021.66 | 1012.76 | 1003.83 | 1634.1 | 1596.5 | 1559 | 1521.8 | 1485
